Earlier results, collected in patent US20100228037A1, “Process for Preparing Allylmercaptocaptopril (Cpssa) and Related Asymmetrical Disulfides” (Yeda Research And Development Co. Ltd. at the Weizmann …, priority 2006, published 2010).
Where two headings read alike, the source gives them in different places.

What was measured:
[1] = blood or plasma of mammals
[2] = in vitro, human blood
[3] = in vivo, rats
[4] = rats, immediately after administration

| Structure (SMILES) | antihypertensive properties compared with unmodified captopril (rats; rat, in vivo) | blood pressure (rats; [4]) | serum level of insulin (rats; [4]) | serum level of triglycerides (rats; [4]) | stability in blood or plasma [1] | disintegration in blood after administration [2] | disintegration in blood after administration [3] |
| --- | --- | --- | --- | --- | --- | --- | --- |
| C=CCSSC[C@H](C)C(=O)N1CCC[C@H]1C(=O)O [CPSSA, allylmercaptocaptopril] | improved antihypertensive properties | significantly decreased blood pressure | to near normal levels | to near normal levels | stable in blood or plasma of mammals |  |  |
| C=CCS[S+]([O-])CC=C (stereo not shown) [allicin] |  |  |  |  |  | disintegrates in the blood a few minutes post its administration | disintegrates in the blood a few minutes post its administration |
